Some results are limits rather than exact numbers.

In assay [1] the test system is HCV genotype 1a subgenomic replicon. Kind of assay: HCV replicon assay, genotype 1a subgenomic replicon (luciferase). The assay is classed as cell-based. The settings on record: Hepatitis C virus; genotype 1a replicon stable cell line, luciferase activity measured 48 hours later; read-out: Replicon 1A pEC50 (converted). Here is the method:
(§1) Protocol for Testing and Data Analysis of Compounds in the HCV Replicon Assay
(§2) Compounds were assayed for activity against HCV using the genotype 1a and 1b subgenomic replicon model systems. Stable cell lines bearing the genotype 1a and 1b replicons were used for screening of compounds. Both replicons are bicistronic and contain the firefly luciferase gene. The ET cell line is stably transfected with RNA transcripts harboring a I389luc-ubi-neo/NS3-3′/ET replicon with firefly luciferase-ubiquitin-neomycin phosphotransferase fusion protein and EMCV-IRES driven NS3-5B polyprotein containing the cell culture adaptive mutations (E1202G; T1280I; K1846T) (Krieger at al, 2001 and unpublished). The genotype 1a replicon is a stable cell line licensed from Apath LLC, modified to contain the firefly luciferase gene. The cells were grown in DMEM, supplemented with 10% fetal calf serum, 2 mM Glutamine, Penicillin (100 IU/mL)/Streptomycin (100 μg/mL), 1× nonessential amino acids, and 250-500 μg/mL G418 (“Geneticin”). They were all available through Life Technologies (Bethesda, Md.). The cells were plated at 5×10^3 cells/well in 384 well plates containing compounds. The final concentration of compounds ranged between 0.03 pM to 50 μm and the final DMSO concentration of 0.5-1%.
(§3) Luciferase activity was measured 48 hours later by adding a Steady glo reagent (Promega, Madison, Wis.). Percent inhibition of replication data was plotted relative to no compound control. Under the same condition, cytotoxicity of the compounds was determined using cell titer glo (Promega, Madison, Ws). EC50s were determined from an 11 point dose response curve using 3-4-fold serial dilution for each compound, which spans a concentration range >1000 fold. The level of inhibition for each compound was determined with Activity Base or with BioAssay plus the Excel XC50 module. Percent inhibition was determined with the following equation where the cross-talk corrected value is the value from the test well, the compound positive control mean is the average value of the wells with no compound present, and the DMSO negative control mean is the average value of the wells with DMSO but no cells present.
(§4) [formula] These normalized values are exported to EC50 where they are plotted against the molar compound concentrations using the standard four parameter logistic equation: […]

In assay [2] the test system is HCV genotype 1b subgenomic replicon. As to the kind of experiment: HCV replicon assay, genotype 1b subgenomic replicon (ET cell line, luciferase). The assay is classed as cell-based. The following applies: Hepatitis C virus; genotype 1b replicon ET cell line, luciferase activity measured 48 hours later; read-out: Replicon 1B pEC50 (converted). Here is the method: as §1, §2, §3, §4

As for `COC(=O)NCC(=O)N1CC2(C[C@H]1c1ncc(-c3ccc(-c4ccc(-c5cnc([C@@H]6CCCN6C(=O)[C@@H](NC(=O)OC)C(C)C)[nH]5)cc4)cc3)[nH]1)SCCS2` [Example 14, methyl [(1S)-2-methyl-1-({(2S)-2-[4-(4′-{2-[(8S)-7-({[(methyloxy)carbonyl]amino}acetyl)-1,4-dithia-7-azaspiro[4.4]non-8-yl]-1H-imidazol-4-yl}-4-biphenylyl)-1H-imidazol-2-yl]-1-pyrrolidinyl}carbonyl)propyl]carbamate], the values for the EC50 in assay [1] and in assay [2] were 631 pM and 5.01 pM, respectively.
For `COC(=O)N[C@H](C(=O)N1CC2(CCOCC2)CC1c1ncc(-c2ccc(-c3ccc(-c4cnc([C@@H]5CCCN5C(=O)[C@@H](NC(=O)OC)C(C)C)[nH]4)cc3)cc2)[nH]1)C(C)C` (stereo partly drawn) [Example 15, methyl [(1S)-2-methyl-1-({(2S)-2-[4-(4′-{2-[2-((2S)-3-methyl-2-{[(methyloxy)carbonyl]amino}butanoyl)-8-oxa-2-azaspiro[4.5]dec-3-yl]-1H-imidazol-4-yl}-4-biphenylyl)-1H-imidazol-2-yl]-1-pyrrolidinyl}carbonyl)propyl]carbamate], the EC50 was 63.1 pM in assay [1] and 15.8 pM in assay [2].
On to `COC(=O)N[C@H](C(=O)N1CC2(CCS(=O)(=O)CC2)CC1c1ncc(-c2ccc(-c3ccc(-c4cnc([C@@H]5CCCN5C(=O)[C@@H](NC(=O)OC)C(C)C)[nH]4)cc3)cc2)[nH]1)C(C)C` (stereo partly drawn) [Example 16, methyl [(1S)-2-methyl-1-({(2S)-2-[4-(4′-{2-[2-((2S)-3-methyl-2-{[(methyloxy)carbonyl]amino}butanoyl)-8,8-dioxido-8-thia-2-azaspiro[4.5]dec-3-yl]-1H-imidazol-4-yl}-4-biphenylyl)-1H-imidazol-2-yl]-1-pyrrolidinyl}carbonyl)propyl]carbamate], for which the EC50 in assay [1] was 398 pM; in assay [2] it was 39.8 pM.
In the case of `COC(=O)N[C@H](C(=O)N1CCC[C@H]1c1ncc(-c2ccc(-c3ccc(-c4cnc([C@@H]5CC6(CCC(F)(F)CC6)CN5C(=O)[C@@H](NC(=O)OC)C(C)C)[nH]4)cc3)cc2)[nH]1)C(C)C` [Example 17, methyl [(1S)-1-({(2S)-2-[4-(4′-{2-[8,8-difluoro-2-((2S)-3-methyl-2-{[(methyloxy)carbonyl]amino}butanoyl)-2-azaspiro[4.5]dec-3-yl]-1H-imidazol-4-yl}-4-biphenylyl)-1H-imidazol-2-yl]-1-pyrrolidinyl}carbonyl)-2-methylpropyl]carbamate], the EC50 was 39.8 pM in assay [1] and 2.51 pM in assay [2].
As to `COC(=O)N[C@H](C(=O)N1CC2(CCOCC2)C[C@H]1c1nc(-c2ccc(-c3ccc(-c4cnc([C@@H]5CC6(CCOCC6)CN5C(=O)[C@@H](NC(=O)OC)C(C)C)[nH]4)cc3)cc2)c[nH]1)C(C)C` [Example 18, dimethyl (4,4′-biphenyldiylbis{1H-imidazole-4,2-diyl(3S)-8-oxa-2-azaspiro[4.5]decane-3,2-diyl[(2S)-3-methyl-1-oxo-1,2-butanediyl]})biscarbamate], the EC50 in assay [1] is 20 pM; in assay [2], 12.6 pM.
On to `COC(=O)N[C@H](C(=O)N1CC2(CCN(C(=O)OC(C)(C)C)CC2)CC1c1ncc(-c2ccc(-c3ccc(-c4cnc([C@@H]5CCCN5C(=O)[C@@H](NC(=O)OC)C(C)C)[nH]4)cc3)cc2)[nH]1)C(C)C` (stereo partly drawn) [Example 19, 1,1-dimethylethyl 2-{N-[(methyloxy)carbonyl]-L-valyl}-3-(4-{4′-[2-((2S)-1-{N-[(methyloxy)carbonyl]-L-valyl}-2-pyrrolidinyl)-1H-imidazol-4-yl]-4-biphenylyl}-1H-imidazol-2-yl)-2,8-diazaspiro[4.5]decane-8-carboxylate], for which the results for the EC50 in assay [1] and in assay [2] were 10000 pM and 39.8 pM, respectively.
For the molecule `COC(=O)N[C@H](C(=O)N1CC2(CCNCC2)CC1c1ncc(-c2ccc(-c3ccc(-c4cnc([C@@H]5CCCN5C(=O)[C@@H](NC(=O)OC)C(C)C)[nH]4)cc3)cc2)[nH]1)C(C)C` (stereo partly drawn) [Example 20, methyl [(1S)-2-methyl-1-({(2S)-2-[4-(4′-{2-[2-((2S)-3-methyl-2-{[(methyloxy)carbonyl]amino}butanoyl)-2,8-diazaspiro[4.5]dec-3-yl]-1H-imidazol-4-yl}-4-biphenylyl)-1H-imidazol-2-yl]-1-pyrrolidinyl}carbonyl)propyl]carbamate], the EC50 is above 31600 pM in assay [1] and 1580 pM in assay [2].
With `COC(=O)N[C@H](C(=O)N1CC2(CCN(C(C)=O)CC2)CC1c1ncc(-c2ccc(-c3ccc(-c4cnc([C@@H]5CCCN5C(=O)[C@@H](NC(=O)OC)C(C)C)[nH]4)cc3)cc2)[nH]1)C(C)C` (stereo partly drawn) [Example 21, methyl [(1S)-1-({(2S)-2-[4-(4′-{2-[8-acetyl-2-((2S)-3-methyl-2-{[(methyloxy)carbonyl]amino}butanoyl)-2,8-diazaspiro[4.5]dec-3-yl]-1H-imidazol-4-yl}-4-biphenylyl)-1H-imidazol-2-yl]-1-pyrrolidinyl}carbonyl)-2-methylpropyl]carbamate], the EC50 in assay [1] is 10000 pM; in assay [2] it was 200 pM.
On the same counts, the results for `COC(=O)N[C@H](C(=O)N1CC2(CCN(C(=O)OC)CC2)CC1c1ncc(-c2ccc(-c3ccc(-c4cnc([C@@H]5CCCN5C(=O)[C@@H](NC(=O)OC)C(C)C)[nH]4)cc3)cc2)[nH]1)C(C)C` (stereo partly drawn) [Example 22, methyl 2-{N-[(methyloxy)carbonyl]-L-valyl}-3-(4-{4′-[2-((2S)-1-{N-[(methyloxy)carbonyl]-L-valyl}-2-pyrrolidinyl)-1H-imidazol-4-yl]-4-biphenylyl}-1H-imidazol-2-yl)-2,8-diazaspiro[4.5]decane-8-carboxylate] are 794 pM and 15.8 pM.
On to `COC(=O)N[C@H](C(=O)N1CC2(CC1c1ncc(-c3ccc(-c4ccc(-c5cnc([C@@H]6CCCN6C(=O)[C@@H](NC(=O)OC)C(C)C)[nH]5)cc4)cc3)[nH]1)CN(C(=O)OC(C)(C)C)C2)C(C)C` (stereo partly drawn) [Example 23, 1,1-dimethylethyl 6-{N-[(methyloxy)carbonyl]-L-valyl}-7-(4-{4′-[2-((2S)-1-{N-[(methyloxy)carbonyl]-L-valyl}-2-pyrrolidinyl)-1H-imidazol-4-yl]-4-biphenylyl}-1H-imidazol-2-yl)-2,6-diazaspiro[3.4]octane-2-carboxylate], for which the EC50 is 1260 pM in assay [1] and 10 pM in assay [2].
`COC(=O)N[C@H](C(=O)N1CC2(CNC2)CC1c1ncc(-c2ccc(-c3ccc(-c4cnc([C@@H]5CCCN5C(=O)[C@@H](NC(=O)OC)C(C)C)[nH]4)cc3)cc2)[nH]1)C(C)C` (stereo partly drawn) [Example 24, methyl [(1S)-2-methyl-1-({(2S)-2-[4-(4′-{2-[6-((2S)-3-methyl-2-{[(methyloxy)carbonyl]amino}butanoyl)-2,6-diazaspiro[3.4]oct-7-yl]-1H-imidazol-4-yl}-4-biphenylyl)-1H-imidazol-2-yl]-1-pyrrolidinyl}carbonyl)propyl]carbamate]: the EC50 was 3160 pM in assay [1] and 126 pM in assay [2].
Take `COC(=O)N[C@H](C(=O)N1CC2(CC1c1ncc(-c3ccc(-c4ccc(-c5cnc([C@@H]6CCCN6C(=O)[C@@H](NC(=O)OC)C(C)C)[nH]5)cc4)cc3)[nH]1)CN(C(C)=O)C2)C(C)C` (stereo partly drawn) [Example 25, methyl [(1S)-1-({(2S)-2-[4-(4′-{2-[2-acetyl-6-((2S)-3-methyl-2-{[(methyloxy)carbonyl]amino}butanoyl)-2,6-diazaspiro[3.4]oct-7-yl]-1H-imidazol-4-yl}-4-biphenylyl)-1H-imidazol-2-yl]-1-pyrrolidinyl}carbonyl)-2-methylpropyl]carbamate]: the results for the EC50 in assay [1] and in assay [2] were 1260 pM and 158 pM, respectively.
Consider `COC(=O)N[C@H](C(=O)N1CC2(CC1c1ncc(-c3ccc(-c4ccc(-c5cnc([C@@H]6CCCN6C(=O)[C@@H](NC(=O)OC)C(C)C)[nH]5)cc4)cc3)[nH]1)CN(C(=O)OC)C2)C(C)C` (stereo partly drawn) [Example 26, methyl 6-{N-[(methyloxy)carbonyl]-L-valyl}-7-(4-{4′-[2-((2S)-{N-[(methyloxy)carbonyl]-L-valyl}-2-pyrrolidinyl)-1H-imidazol-4-yl]-4-biphenylyl}-1H-imidazol-2-yl)-2,6-diazaspiro[3.4]octane-2-carboxylate], for which the EC50 is 2000 pM in assay [1] and 50.1 pM in assay [2].
Regarding `CNC(=O)N1CC2(CC(c3ncc(-c4ccc(-c5ccc(-c6cnc([C@@H]7CCCN7C(=O)[C@@H](NC(=O)OC)C(C)C)[nH]6)cc5)cc4)[nH]3)N(C(=O)[C@@H](NC(=O)OC)C(C)C)C2)C1` (stereo partly drawn) [Example 27, methyl [(1S)-2-methyl-1-({(2S)-2-[4-(4′-{2-[2-[(methylamino)carbonyl]-6-((2S)-3-methyl-2-{[(methyloxy)carbonyl]amino}butanoyl)-2,6-diazaspiro[3.4]oct-7-yl]-1H-imidazol-4-yl}-4-biphenylyl)-1H-imidazol-2-yl]-1-pyrrolidinyl}carbonyl)propyl]carbamate], the EC50 is 6310 pM in assay [1] and 251 pM in assay [2].

(Values after patent US9814699B2, “Chemical compounds” (Janssen Pharmaceuticals, Inc., priority 2009, dated 2017).)
